This is an account of results in US7632850B2, “Arylalkylcarbamate derivatives and production thereof” (Sanofi-aventis, priority 2003, dated 2009).

Series [1] concerns the target T1, FAAH (Fatty Acid Amide Hydrolase) (Mus musculus, UniProt O08914).
T1 construct: Membrane homogenates are prepared at the time of use by homogenizing the tissues in a Polytron; from tissue; host or cells: mouse brain (minus the cerebellum), membrane homogenate
T1 sequence (O08914 1-579): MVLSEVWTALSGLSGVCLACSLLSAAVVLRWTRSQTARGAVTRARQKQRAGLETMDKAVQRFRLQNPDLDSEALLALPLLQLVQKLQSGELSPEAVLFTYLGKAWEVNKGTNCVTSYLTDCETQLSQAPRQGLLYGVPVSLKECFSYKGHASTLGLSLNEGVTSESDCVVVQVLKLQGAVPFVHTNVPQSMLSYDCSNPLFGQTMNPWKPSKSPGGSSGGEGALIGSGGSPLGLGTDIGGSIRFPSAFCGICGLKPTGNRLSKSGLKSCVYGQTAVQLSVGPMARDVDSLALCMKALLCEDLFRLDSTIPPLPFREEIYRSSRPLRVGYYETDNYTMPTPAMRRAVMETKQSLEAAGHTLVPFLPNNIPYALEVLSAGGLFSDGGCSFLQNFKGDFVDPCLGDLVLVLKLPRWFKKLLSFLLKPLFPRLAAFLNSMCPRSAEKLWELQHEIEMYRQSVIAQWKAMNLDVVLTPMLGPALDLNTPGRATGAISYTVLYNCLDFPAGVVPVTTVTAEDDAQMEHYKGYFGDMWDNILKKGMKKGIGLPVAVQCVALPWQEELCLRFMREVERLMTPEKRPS
As to the kind of experiment: radioenzymatic assay of anandamide hydrolysis by FAAH (mouse brain membrane homogenates). Conditions: concentration inhibiting by 50% the control enzyme activity of FAAH; mouse brain membranes, 10 μM anandamide, 15 minutes at 25° C. The format is biochemical. On the procedure:
The compounds of the invention were subjected to pharmacological tests permitting determination of their inhibitory effect on the enzyme FAAH (Fatty Acid Amide Hydrolase).
Accordingly, mouse brains (minus the cerebellum) are removed and stored at −80° C. Membrane homogenates are prepared at the time of use by homogenizing the tissues in a Polytron in a 10 mM Tris HCl buffer (pH 8.0) containing 150 mM NaCl and 1 mM EDTA. The enzyme reaction is subsequently conducted in 70 μl of buffer, containing bovine serum albumin without fatty acids (1 mg/ml). In succession, the test compounds, at various concentrations, anandamide [ethanolamine 1-^3H] (specific activity: 15-20 Ci/mmol) diluted to 10 μM with cold anandamide, and the membrane preparation (400 μg of frozen tissue per assay) are added. After 15 minutes at 25° C., the enzyme reaction is terminated by adding 140 μl of chloroform/methanol. (2:1). The mixture is stirred for 10 minutes then centrifuged for 15 minutes at 3500 g. An aliquot (30 μl) of the aqueous phase, containing the ethanolamine [1-^3H], is counted by liquid scintillation.

The test system of the next series is male OF1 mice. The series is described as follows: analgesia test: abdominal stretches induced by PBQ (phenylbenzoquinone) i.p. The format is in vivo. On the procedure: The in vivo activity of the compounds of the invention was evaluated in an analgesia test. Accordingly, intraperitoneal (i.p.) administration of PBQ (phenylbenzoquinone, 2 mg/kg in a 0.9% sodium chloride solution containing 5% of ethanol) to male OF1 mice weighing 25 to 30 g causes abdominal stretches, on average 30 twists or contractions during the period from 5 to 15 minutes after injection. The test compounds are administered orally in suspension in Tween 80 at 0.5%, 60 minutes or 120 minutes before the administration of PBQ.

In general, IC50 refers to the concentration needed to halve the response being measured. A higher IC50 goes with weaker potency. The term melting point denotes the temperature of the solid-liquid transition. The compound `CNC(=O)COC(=O)NCCc1ccc(Oc2ccccc2)cc1` [Compound 194] gave a melting point of 111 to 113 °C. The same compound displayed an IC50 in series [1] of 142 nM. In the series with male OF1 mice ((b) 3 mg/kg p.o. at 1 hour), the “Reduction in number of stretches (%)” value was −55% (b).
In the case of `CNC(=O)COC(=O)NCCc1ccc(-c2ccc(F)cc2)cc1F` [Compound 141, 2-(methylamino)-2-oxoethyl 2-(3,4′-difluoro-1,1′biphenyl-4-yl)ethylcarbamate], the melting point was in the range of 164 to 166 °C.
Regarding `CNC(=O)COC(=O)NCc1ccc(-c2ccccn2)cc1` [Compound 81, 2-(methylamino)-2-oxoethyl 4-pyridin-2-ylbenzylcarbamate], the melting point was 151 to 153 °C.
For `CNC(=O)COC(=O)NCCc1ccc(-c2cccc(C#N)c2)cc1` [Compound 171, 2-(methylamino)-2-oxoethyl 2-(3′-cyano-1,1′-biphenyl-4-yl)ethylcarbamate], the melting point lay within 157 to 159 °C. Also, the IC50 in series [1] was 108 nM. In the series with male OF1 mice ((a) 1 mg/kg p.o. at 2 hours), the “Reduction in number of stretches (%)” value was −51% (a).
In the case of `CNC(=O)COC(=O)NCc1ccc(-c2ccccc2)cc1` [Compound 1, 2-(methylamino)-2-oxoethyl 1,1′-biphenyl-4-ylmethylcarbamate], the melting point was in the range of 189 to 190 °C.
The same measure, in the same setting: to `CNC(=O)COC(=O)NCCc1ccc(C(F)(F)F)cc1` [Compound 125, 2-(methylamino)-2-oxoethyl 2-[4-(trifluoromethyl)phenyl]ethylcarbamate] belongs 140 to 142 °C; to `NC(=O)COC(=O)NCC1(c2ccc(-c3ccc(F)cc3)cc2)CC1` [Compound 145, 2-amino-2-oxoethyl 1-(4′-fluoro-1,1′-biphenyl-4-yl)cyclopropylmethylcarbamate], 139 to 141 °C; to `CNC(=O)COC(=O)NCCc1ccc(Oc2ccc(Cl)cc2)cc1` [Compound 196, 2-(methylamino)-2-oxoethyl 2-{4-[(4-chlorophenyl)oxy]phenyl}ethylcarbamate], 133 to 135 °C.
Same read-out and setting: the result for `NC(=O)COC(=O)NCCc1ccc(-n2ccc3cccnc32)cc1` [Compound 224] reads 110 to 112 °C.
`CNC(=O)COC(=O)NCCc1cccc(Oc2ccccc2)c1` [Compound 197, 2-(methylamino)-2-oxoethyl 2-(3-phenyloxyphenyl)ethylcarbamate] came in with a melting point of 82 to 84 °C.
`CNC(=O)COC(=O)NCCc1ccc(-c2ccc(Cl)cc2Cl)cc1` [Compound 178] yielded a melting point of 147 to 149 °C. The IC50 in series [1] was 140 nM. Further, the “Reduction in number of stretches (%)” value in the series with male OF1 mice ((b) 3 mg/kg p.o. at 1 hour) is −53% (b).
As to `CNC(=O)COC(=O)NCCc1ccc(-c2ccc(F)c(Cl)c2)cc1` [Compound 192, 2-(methylamino)-2-oxoethyl 2-(3′-chloro-4′-fluoro-1,1′-biphenyl-4-yl)ethylcarbamate], the melting point fell in the range of 178 to 180 °C. This compound also displayed an IC50 in series [1] of 102 nM. In the series on male OF1 mice ((a) 1 mg/kg p.o. at 2 hours), the “Reduction in number of stretches (%)” value is given as −43% (a).
Turning to `CNC(=O)COC(=O)NCCc1ccc(-c2ccc(Cl)cc2)cc1` [Compound 150, 2-(methylamino)-2-oxoethyl 2-(4′-chloro-1,1′-biphenyl-4-yl)ethylcarbamate], the melting point fell in the range of 186 to 188 °C. Besides, in series [1], the IC50 worked out at 63 nM. In addition, in the series with male OF1 mice ((b) 3 mg/kg p.o. at 1 hour), the “Reduction in number of stretches (%)” value is −57% (b).
Regarding `NC(=O)COC(=O)NCc1ccc(-n2cnc(-c3ccccc3)c2)cc1` [Compound 84, 2-amino-2-oxoethyl [4-(4-phenyl-1H-imidazol-1-yl)phenyl]methylcarbamate], the melting point fell in the range of 200 to 203 °C.
On the same count and under the same terms, to `CNC(=O)COC(=O)NCc1ccc(-c2ccc(F)cc2)cc1Cl` [Compound 9, 2-(methylamino)-2-oxoethyl (3-chloro-4′-fluoro-1,1′-biphenyl-4-yl)methylcarbamate] belongs 170 to 172 °C.
